Our source for the RP-LC retention time values is the METLIN SMRT retention time set (Domingo-Almenara et al. 2019).

The nature of the data set: gradient 5% acetonitrile 3 min, to 50% in 2 min, to 85% in 15 min, held 3 min, 100 µL/min. Conditions: column: Zorbax Extend-C18 2.1 x 50 mm; eluents: water / acetonitrile, 0.1% formic acid. The method in brief:
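Pure standards were analyzed in mixtures of ~100 molecules using HPLC coupled to a quadrupole time-of-flight mass spectrometer, in both positive and negative ionization mode. Separation used a Zorbax Extend-C18 column (2.1 × 50 mm, 1.8 μm) at 100 μL/min, with water and acetonitrile each containing 0.1% formic acid. Dead and dwell volumes were 40 μL and 900 μL, and data were collected over 3 months. Retention time was read from computationally picked adduct peaks, each inspected manually.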
`CN1C(=O)C2CCCCN2c2ccc(C(=O)NCCC3=CCCCC3)cc21` (centres undefined) showed an RP-LC retention time of 993 s.

On to `O=C(Nc1ccccc1Cl)C1CCCN(c2ncnc3c2nc2n3CCCCC2)C1` (centres undefined), for which the RP-LC retention time amounted to 851 s. `COc1ccccc1N1CCN(c2cc(SCC(=O)Nc3cc(F)ccc3F)ncn2)CC1` displayed an RP-LC retention time of 1130 s. With `COc1nccnc1N1CCC(NS(=O)(=O)c2ccc(C)cc2)C1` (centres undefined) the figure was 759 s; with `CCN(Cc1ccccc1)C(=O)CN1C(=O)CCc2cc(Br)ccc21`, 1000 s; with `Cc1cccc(C(=O)NCc2ccc3c(c2)nnn3C)c1`, 700 s. The compound `CCOc1ccccc1NC(=O)Cn1cnc2nc(N3CCCC(C(=O)NC4CC4)C3)sc2c1=O` (centres undefined) displayed an RP-LC retention time of 723 s. The result for `CCOc1ccccc1NC(=O)N1CCCC(Cn2cnc3cccnc32)C1` (centres undefined) reads 723 s; that for `CC1CCN(c2cc(-c3noc(C(=O)N4CCCC4)n3)ccn2)CC1`, 764 s.

As to `Cc1ccn2cc(C(=O)NC3CCCC3)nc2c1`, the RP-LC retention time came out at 600 s. The result for `CCN(CC)C(=O)CC(c1cc(OC)c(OC)c(OC)c1)N1Cc2ccccc2C1=O` (centres undefined) reads 769 s. With `Cc1cc(N2CCN(c3ccccn3)CC2)n2nc(C(F)(F)F)c(-c3ccc(F)cc3)c2n1` the figure was 870 s; with `CCCN(CCC)CC(=O)N1CC(=O)Nc2ccccc21`, 617 s; with `O=C(Cn1cc(S(=O)(=O)N2CCCCC2)ccc1=O)N1CCCc2ccccc21`, 846 s.

As to `Cc1nc(-c2cn(Cc3cccc(F)c3)nn2)no1`, the RP-LC retention time was 748 s. The result for `COc1ccc(-c2noc(-c3nn(-c4cccc(F)c4)ccc3=O)n2)cc1` reads 874 s; that for `Cc1ccc(C)c(N2CCN(c3ccnc(SCC(=O)Nc4ccc(Cl)cc4F)n3)CC2)c1`, 1140 s; that for `Cc1ccc(-c2nc3sc(N4CCCCC4)nn3c2NC(=O)c2ccnn2C)cc1`, 887 s.

With `CCc1sc(NC(=O)Cc2c(F)cccc2Cl)nc1-c1ccccc1`, the RP-LC retention time turned out to be 1150 s. The result for `CCC1=NS(=O)(=O)c2cccnc2N1c1ccc2c(c1)OCCO2` reads 800 s; that for `O=S(=O)(NCC1CCCO1)c1ccc(Cl)c(-c2nnc(-c3ccccc3)o2)c1` (centres undefined), 914 s. The result for `O=C(NC1CCCCCC1)c1cc(C2CC2)[nH]n1` reads 792 s. The result for `Cc1cnc(-c2ccncc2)n1C1CCCN(S(=O)(=O)c2cn(C)cn2)C1` (centres undefined) reads 557 s; that for `CC(C)CNC(=O)N1CCc2c(c(-c3nc(-c4ccc(F)cc4)no3)nn2C)C1`, 940 s. As to `COc1cccc(-c2noc(C3CC(=O)N(c4cc(C)cc(C)c4)C3)n2)c1OC` (centres undefined), the RP-LC retention time was 1020 s. Turning to `Cc1cc(Br)ccc1NC(=O)C1CCN(c2cc(=O)n(C)c(=O)n2C)CC1`, the RP-LC retention time amounted to 745 s. The result for `CCN1CCCCc2cc(C(=O)NC(C)(C)C)sc21` reads 1080 s; that for `Cc1ccc(NC(=O)Cn2c(=O)n(-c3ccccc3)c3ncccc32)cc1`, 840 s. For `Fc1ccc(Cc2noc(-c3nc(-c4ccncc4)no3)n2)cc1`, the RP-LC retention time came to 943 s. The result for `CCOC(=O)c1c(C)[nH]c(C(=O)N2CCCC(C(=O)NCc3ccc4c(c3)OCO4)C2)c1C` (centres undefined) reads 770 s. The compound `Cc1oc2ncnc(OCC(=O)Nc3ccc(S(N)(=O)=O)cc3)c2c1C` had an RP-LC retention time of 738 s.

`COc1ccc(CC(=O)N2CCc3cc(-c4noc(C)n4)ccc32)cc1Cl` displayed an RP-LC retention time of 979 s. The result for `CCN(CC)S(=O)(=O)c1ccc2c(c1)CC(C(=O)N1CCN(C3CCCCC3)CC1)N2C(C)=O` (centres undefined) reads 666 s; that for `Cc1ccc(F)cc1NC(=O)CSc1nc(N2CCCCC2)nc2ccccc12`, 778 s; that for `COc1cccc(-c2noc(Cn3c(=O)n(-c4ccc(C)cc4)c(=O)c4sccc43)n2)c1`, 1030 s.

`Cc1c(Cl)cccc1S(=O)(=O)NC1CCN(c2ccccc2)C1=O` (centres undefined) yielded an RP-LC retention time of 970 s. The result for `Cc1cc(NC(=O)N2CCN(CCn3c(C)nc4cccnc43)CC2)ccc1Br` reads 641 s; that for `CCCNC(=O)c1cn(-c2ccc(-c3nc(C(C)(C)C)no3)cn2)cn1`, 931 s. Consider `Cc1ccn2cc(-c3ccc(NS(=O)(=O)c4cc(Cl)ccc4Cl)cc3)nc2n1`, for which the RP-LC retention time came to 691 s. With `Cc1ccc(NC(=O)C2CCN(S(=O)(=O)c3cn(C(C)C)cn3)CC2)cc1C`, the RP-LC retention time came to 819 s.

As to `CCCn1c(CN2CCCC2)nc2cc(NC(=O)C(C)C)ccc21`, the RP-LC retention time worked out at 595 s. The result for `CCOC(=O)c1nc(N(C)c2ccccc2CC)c2ccccc2n1` reads 1010 s; that for `Cc1cc(C)cc(-n2c(SCC(=O)Nc3nc(C)cs3)nc3c(c2=O)SCC3)c1`, 825 s. With `O=C(c1ccc(-c2ccsc2)nc1)N1CCCC1` the figure was 716 s; with `COc1ccc(-c2nc(Nc3ccc(C)cc3)sc2C)cc1`, 1060 s; with `COc1ccc(-c2noc(C3CCCN3C(=O)NC3CCCCC3)n2)cc1` (centres undefined), 948 s. The result for `COCCNS(=O)(=O)c1cccc(-c2nc(-c3ccccc3)no2)c1` reads 972 s; that for `COc1ccc2c(c1)C1CC(C)(NC(=O)C1S(=O)(=O)c1ccc(C)cc1)O2` (centres undefined), 893 s; that for `CCCC(=O)NCCc1csc(-c2ccc(Cl)cc2)n1`, 921 s. Regarding `Cc1ccc(-c2nnc(-c3cccc(S(=O)(=O)NCC(=O)O)c3)o2)cc1`, the RP-LC retention time turned out to be 764 s. `Cc1cc(F)ccc1NC(=O)c1csc(-c2ccc(N3CCCC3)nc2)n1`: the RP-LC retention time was determined as 768 s. As for `O=C(Nc1cccc(Br)c1)N1CCC(n2cnc3cccnc32)CC1`, the RP-LC retention time was 660 s. With `CC(=O)Nc1cccc(NS(=O)(=O)c2ccc3c(c2)OCCCO3)c1` the figure was 676 s; with `Cc1ccsc1C(=O)Nc1ccc(-c2nc(-c3ccccc3)co2)cc1`, 1160 s. The result for `COc1ccc(-c2c(C)noc2NC(C)=O)cc1S(=O)(=O)N1CCC2(CC1)OCCO2` reads 680 s; that for `COc1cccc(-c2nc(Cn3ccn4nc(-c5ccc(F)cc5)cc4c3=O)c(C)o2)c1OC`, 1080 s; that for `CCCNC(=O)c1cn(-c2cc(-c3nc(C)no3)ccn2)cn1`, 706 s. Turning to `Cc1cc(NC(=O)NC(=O)c2ccccc2NC(=O)CN)ccc1Oc1ncc(Br)cn1`, the RP-LC retention time was 653 s.

The compound `COc1cc(OC)c(NS(=O)(=O)c2cc(-c3cc(C(F)(F)F)on3)sc2C)cc1Cl` displayed an RP-LC retention time of 1150 s.

Take `COc1ccccc1-c1nnc(-c2ccc(OC)c(S(=O)(=O)N3CCOCC3)c2)o1`: the RP-LC retention time is 781 s. For the compound `CC1=C(c2ccc(C)cc2)S(=O)(=O)N=C1N1CCCN(C(=O)c2cccs2)CC1`, the RP-LC retention time amounted to 836 s. Take `Cn1c(N2CCC(C(=O)N3CCN(c4ccc(F)cc4)CC3)CC2)cc(=O)n(C)c1=O`: the RP-LC retention time turned out to be 704 s.

As for `COC(=O)c1ccc(NC(=O)CN2CCc3[nH]c4c(OC)ccc(Cl)c4c(=O)c3C2)cc1`, the RP-LC retention time is 614 s. With `O=C(Nc1ccc2nc3n(c(=O)c2c1)CCCCC3)C(=O)N1CCCC1` the figure was 684 s; with `O=S(=O)(c1cccn2cnnc12)N(Cc1ccc(F)cc1)c1ccc(F)c(F)c1`, 887 s. The result for `COc1ccc2c(C)c(CCC(=O)N3CCC(C(N)=O)CC3)c(=O)oc2c1` reads 645 s; that for `O=C(NC1CCCCC1)N1CCCC(c2nnnn2-c2ccccc2)C1` (centres undefined), 818 s; that for `O=C(Nc1ccc2nc3n(c(=O)c2c1)CCCC3)Nc1ccccc1Br`, 735 s. The compound `COc1ccc(Cl)cc1S(=O)(=O)N1CCC(CN2CCCCC2)CC1` registered an RP-LC retention time of 584 s. The compound `COc1ccc(CC(=O)Nc2cnn(-c3ncc(N(C)C)cn3)c2)c(Cl)c1` showed an RP-LC retention time of 753 s. Turning to `COc1ccc(OC)c(NC(=O)NC2CCN(c3nc4ccccc4n(C)c3=O)CC2)c1`, the RP-LC retention time turned out to be 886 s. As to `Cc1cc(NC(=O)c2ccc(S(=O)(=O)Nc3ccc4c(c3)OCO4)o2)no1`, the RP-LC retention time was determined as 737 s. The result for `Cc1cc(C)cc(-c2nnc(Cc3nc(-c4ccc(Cl)cc4)no3)o2)c1` reads 1230 s; that for `COc1ccc(-c2noc(C3CCCN3C(=O)Nc3cccc(Br)c3)n2)cc1` (centres undefined), 972 s; that for `Cc1sc(C)c(S(=O)(=O)N2CCN(c3ccc(F)cc3)CC2)c1-c1cc(C(F)(F)F)on1`, 1270 s.

For `O=C(Cn1ccc2c(SCc3ccc(F)cc3)nccc21)N1CCN(c2ccccc2)CC1`, the RP-LC retention time is 782 s.

With `O=C(c1cc(F)ccc1F)N1CCN(C(=O)c2nnn3c2COC(c2ccc(Cl)cc2)C3)CC1` (centres undefined), the RP-LC retention time was 937 s. `Cc1cnn(CC(=O)N2CCc3nn(CC4CC4)c(=O)n3CC2)c1` returned an RP-LC retention time of 617 s. `Cc1ccc2c(c1)OCC(=O)N2Cc1nc(-c2ccc(F)cc2)no1` came in with an RP-LC retention time of 970 s.
